# Measured values: ChEMBL document CHEMBL1147579, “Design, synthesis and evaluation of novel 1,4-naphthoquinone derivatives as antifungal and anticancer agents” (2004)
# Tests used:
# Aspergillus fumigatus = experiment: Antifungal activity against Aspergillus fumigatus; assay type: functional
# Candida albicans = experiment: Antifungal activity against Candida albicans; assay type: functional
# Cryptococcus neoformans [1] = experiment: Antifungal activity against Cryptococcus neoformans; assay type: functional
# [2] = Antifungal activity against Trichophyton mentagrophytes; assay type: functional, Trichophyton mentagraphytes; conditions: Trichophyton benhamiae
# Microsporum canis = experiment: Antifungal activity against Microsporum canis; assay type: functional
# Rattus norvegicus [3] = experiment: Anticancer activity against Walker 256 carcinoma in rat after administration of 10 mg/kg; Activity expressed as % T/C (Active); assay type: functional
# Rattus norvegicus [4] = experiment: Anticancer activity against Walker 256 carcinoma cells in rat after administration of 10 mg/kg; Activity expressed as survivors out of 4 rats (Active); assay type: functional
# Sporothrix schenckii = experiment: Antifungal activity against Sporotrichum schenckii
# Cryptococcus neoformans [5] = experiment: Antifungal activity against C. neoformans; No activity; assay type: functional
# Tolypocladium inflatum = experiment: Antifungal activity against Sporotrichum schenckii; assay type: functional; conditions: sporotrichum scenckii
Compound,MIC (Aspergillus fumigatus) [µg/mL],MIC (Candida albicans) [µg/mL],MIC (Cryptococcus neoformans [1]) [µg/mL],MIC [2] [µg/mL],MIC (Microsporum canis) [µg/mL],T/C (Rattus norvegicus [3]) [%],Survivors (Rattus norvegicus [4]),MIC (Sporothrix schenckii) [µg/mL],MIC (Cryptococcus neoformans [5]) [µg/mL],MIC (Tolypocladium inflatum) [µg/mL]
O=C1c2sc3nccn3c2C(=O)c2c(Cl)ccc(O)c21,3.1,25,6.25,6.25,6.25,,,,,
O=C1C=CC(=O)c2c(O)ccc(O)c21 [NAPHTHAZALIN],,,,,,37,3 µg/mL,,,
Clc1ccc(COC(Cn2ccnc2)c2ccc(Cl)cc2Cl)c(Cl)c1 (stereo unspecified) [MICONAZOLE],12.5,25,12.5,≤ 0.78,≤ 0.78,,,,,
C[C@@H]1[C@H](O)[C@@H](C)/C=C/C=C/C=C/C=C/C=C/C=C/C=C/[C@H](O[C@@H]2O[C@H](C)[C@@H](O)[C@H](N)[C@@H]2O)C[C@@H]2O[C@](O)(C[C@@H](O)C[C@@H](O)[C@H](O)CC[C@@H](O)C[C@@H](O)CC(=O)O[C@H]1C)C[C@H](O)[C@H]2C(=O)O [AMPHOTERICIN B],,0.39,0.78,1.56,1.56,,,,,
O=C1c2sc3nccn3c2C(=O)c2c(O)ccc(O)c21,,25,< 12.5,25,25,,,< 12.5,,
O=C1c2ccccc2C(=O)c2c1sc1nccn21,25,50,12.5,25,25,,,25,,
O=C1C=C(Sc2ccccc2)C(=O)c2ccccc21,25,12.5,1.56,< 0.78,< 0.98,,,,,
O=C(O)CCSC1=CC(=O)c2c(O)ccc(O)c2C1=O,,3.12,,3.12,3.12,,,,1.56,
CC1=CC(=O)c2c(O)ccc(O)c2C1=O,,,,,,23,4,,,
NYSTATIN,,7.9,3.9,,,,,,,13.2
O=C1C(CO)=C(Sc2ccccc2)C(=O)c2ccccc21,< 0.78,25,1.56,1.56,1.56,,,,,
